The values below come from patent US20260166046A1, “Inhibitors of methionine aminopeptidase-2 and methods of preparation and uses thereof” (Primetime Life Sciences LLC, priority 2022, published 2026).

Each structure is given as a SMILES string. Read-outs that look alike come from different tables or passages of the source.

The conditions of data set [1]: in vivo; cited from earlier work.
Another data set concerns the target T1, Recombinant human MetAP2 (Homo sapiens, UniProt P50579).
T1 construct: purchased Bio-Techne/R&D systems
Put plainly: MetAP2 fluorescence assay. In kind it is biochemical. The following applies: recombinant human MetAP2, H-Met-Gly-Pro-AMC substrate. As for the experimental part:
MetAP2 Fluorescence Assay
Recombinant human MetAP2 (Bio-Techne/R&D systems) was diluted to 10 μg/mL in the assay buffer (50 mM HEPES, 0.1 mM CoCl2, 100 mM NaCl, pH 7.5). The substrate, H-Met-Gly-Pro-AMC (Bio-Techne/R&D systems), was diluted to 500 μM with 2 μg/mL of the coupling enzyme, recombinant human dipeptidyl peptidase-4 (Bio-Techne/R&D systems), in assay buffer. 50 μL of 10 μg/mL recombinant human METAP2 were loaded into a flat-bottom black 96-well plate (Greiner Bio), and the reaction was initiated by adding 50 μL of the substrate/dipeptidyl peptidase-4 mixture. The reaction mixture was incubated at room temperature for 10 minutes, and the fluorescence was measured for 5 minutes at excitation and emission wavelengths of 380 nm and 460 nm, respectively, in kinetic mode. For IC50determination, 0.5 μL inhibitor solution was added to the reaction mixture. The reaction rates were used to calculate IC50with KaleidaGraph.

The test system of a further data set is G. lamblia GS. Put plainly: Trophozoite viability IC50 determination, Giardia assay (ATPLite). The following applies: Giardia duodenalis, read-out: Cell viability values Mean IC50 (nM) G. lamblia GS. In kind it is cell-based. The protocol: (§1) Giardia cultures: Trophozoites of G. lamblia isolates WB and GS were grown anaerobically in borosilicate glass screw-cap culture tubes (Fisher Scientific) at pH 7.0 in modified TYI-S-33 medium. The medium was supplemented with 10% heat-inactivated bovine serum (Sigma-Aldrich) and 0.05% bovine bile (Sigma-Aldrich). To attain low-oxygen-tension conditions, the tubes were filled to 85 to 90% of their total volume capacity and incubated without shaking at 37° C. Subcultures (2×10^5 trophozoites per tube) were made three times a week. Detachment of trophozoites for inoculation was achieved by chilling the cultures on ice for 20 min. Culturing and detachment of Metronidazole-resistant G. lamblia Assemblage A 713M3 and assemblage B 1279-M1 trophozoites followed the same protocol, except that the growth medium was supplemented with metronidazole gradually increasing the concentration to 10 μM. Amebae cultures: E. histolytica strain HM1:IMSS trophozoites were grown at 37° C. in TYI-S-33 medium supplemented with penicillin (100 U/mL) and streptomycin sulfate (100 μg/mL). Trophozoites were grown anaerobically in borosilicate tubes and subcultures were made 1-2 times a week. Trophozoites were detached for inoculation by chilling the cultures on ice for 20 minutes.
(§2) Trophozoite viability IC50determination
(§3) Giardia assays: 10 μL giardia trophozoites in growth medium were plated at a density of 10,000 cells/well in sterile 96-well black clear bottom assay plates. Fumagillin and fumagillol derivatives were 1:3 serially diluted from a 1 μM DMSO stock solution and then 100 μL/well were transferred in duplicate to the assay wells. Metronidazole (control) was 1:3 serially diluted in growth medium from a 100 μM stock solution in DMSO. The assay plates were placed in a BD GasPak™ EZ Container System (BD Diagnostics) to create an anaerobic growth environment. The sealed containers were incubated at 37° C. for 72 hr. Following incubation, 70 μL/well of the ATPLite reagent (PerkinElmer) was added to the assay plates for one-step lysis and ATP level detection. The luminescent signals of the assay plates were measured on an EnSpire 2300 plate reader (PerkinElmer). Concentration response titration points for each compound were fitted to a 4-parameters logistic nonlinear regression model using KaleidaGraph, yielding the IC50value and standard error (SE).
On the technique in general: In ATP-based viability assays light output follows the ATP content of the culture.

A further data set concerns G. lamblia WB. The data set is described as above. In kind it is cell-based. The following applies: Giardia duodenalis, read-out: Cell viability values Mean IC50 (nM) G. lamblia WB. The protocol: as §1, §2, §3
For another data set, the system named is E. histolytica HM1: IMSS. Put plainly: Trophozoite viability IC50 determination, Amebae assay (ATPLite). In kind it is cell-based. The following applies: Entamoeba histolytica, read-out: Cell viability values Mean IC50 (nM) E. histolytica HM1: IMSS. As for the experimental part:
as §1, §2, §3
Amebae assays: The protocol is identical to that described above except that the trophozoites were plated at a density of 5000 cells/well because of their larger size.

[2] abbreviates: trophozoites, 72 hr, anaerobic, ATP level.

T1 sequence (P50579 whole entry): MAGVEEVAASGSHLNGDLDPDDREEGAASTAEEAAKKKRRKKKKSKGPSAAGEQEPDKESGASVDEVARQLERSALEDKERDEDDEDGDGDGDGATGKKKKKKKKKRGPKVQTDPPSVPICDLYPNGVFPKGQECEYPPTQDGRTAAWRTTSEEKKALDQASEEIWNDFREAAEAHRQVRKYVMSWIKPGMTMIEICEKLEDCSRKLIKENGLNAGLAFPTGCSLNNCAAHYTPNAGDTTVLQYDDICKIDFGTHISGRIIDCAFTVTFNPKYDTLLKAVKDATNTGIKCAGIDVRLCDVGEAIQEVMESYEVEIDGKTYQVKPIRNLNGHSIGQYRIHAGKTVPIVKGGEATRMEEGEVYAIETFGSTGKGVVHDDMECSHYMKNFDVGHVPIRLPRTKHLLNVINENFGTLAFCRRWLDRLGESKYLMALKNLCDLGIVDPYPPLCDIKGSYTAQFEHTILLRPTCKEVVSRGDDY

For `CO[C@@H]1[C@H](OC(=O)/C=C/C=C/C=C/C=C/C(=O)O)CC[C@]2(CO2)[C@H]1[C@@]1(C)O[C@@H]1CC=C(C)C` [Fumagillin], in data set [1], the body weight loss was over 15%, the “immune-compromised patients with reversible toxic effect on bone marrow (primarily Thrombocytopenia)” value was 33% and the “spontaneous platelet count recovery after halting therapy” value is 1-2 weeks.

Broadly, the IC50 is the concentration at which inhibition is half-maximal. `CO[C@@H]1[C@H](OC(=O)N2CCC(B(O)O)CC2)CC[C@]2(CO2)[C@H]1[C@@]1(C)O[C@@H]1CC=C(C)C` [No 52]: the IC50 is under 10 nM at Recombinant human MetAP2, 10.1 to 100 nM in the data set with G. lamblia GS (72 h), 101 to 1000 nM in the data set on G. lamblia WB (72 h) and over 1000 nM in the data set with E. histolytica HM1: IMSS (72 h).

`CO[C@@H]1[C@H](OC(=O)N2CC=C(B(O)O)CC2)CC[C@]2(CO2)[C@H]1[C@@]1(C)O[C@@H]1CC=C(C)C` [No 53]: the IC50 on Recombinant human MetAP2 was under 10 nM; with G. lamblia GS (72 h), 101 to 1000 nM; with G. lamblia WB (72 h) it was over 1000 nM; with E. histolytica HM1: IMSS (72 h), over 1000 nM.

Consider `CO[C@@H]1[C@H](OC(=O)N(C)c2cc(B(O)O)c3occc3c2)CC[C@]2(CO2)[C@H]1[C@@]1(C)O[C@@H]1CC=C(C)C` [No 54], for which the IC50 at Recombinant human MetAP2 was under 10 nM; with G. lamblia GS (72 h), 101 to 1000 nM; in the data set on G. lamblia WB (72 h), over 1000 nM; in the data set with E. histolytica HM1: IMSS (72 h), over 1000 nM.

For the compound `CO[C@@H]1[C@H](OC(=O)NCc2ccc(B(O)O)o2)CC[C@]2(CO2)[C@H]1[C@@]1(C)O[C@@H]1CC=C(C)C` [No 55], the IC50 at Recombinant human MetAP2 was under 10 nM; in the data set on G. lamblia GS (72 h), 101 to 1000 nM; in the data set on G. lamblia WB (72 h) it was over 1000 nM; in the data set on E. histolytica HM1: IMSS (72 h) it was over 1000 nM.

`CO[C@@H]1[C@H](OC(=O)N2CCc3cc(B(O)O)ccc32)CC[C@]2(CO2)[C@H]1[C@@]1(C)O[C@@H]1CC=C(C)C` [No 58]: the IC50 on Recombinant human MetAP2 was under 10 nM; with G. lamblia GS (72 h), 101 to 1000 nM; with G. lamblia WB (72 h), over 1000 nM; in the data set with E. histolytica HM1: IMSS (72 h) it was over 1000 nM.

Consider `CO[C@@H]1[C@H](OC(=O)NCCCB(O)O)CC[C@]2(CO2)[C@H]1[C@@]1(C)O[C@@H]1CC=C(C)C` [No 59], for which the IC50 was under 10 nM at Recombinant human MetAP2, over 1000 nM in the data set on G. lamblia GS (72 h), over 1000 nM with G. lamblia WB (72 h) and over 1000 nM with E. histolytica HM1: IMSS (72 h).

In the case of `CO[C@@H]1[C@H](OC(=O)N2CCCC2B(O)O)CC[C@]2(CO2)[C@H]1[C@@]1(C)O[C@@H]1CC=C(C)C` (stereo partly drawn) [No 60], the IC50 was under 10 nM on Recombinant human MetAP2, 10.1 to 100 nM with G. lamblia GS (72 h), over 1000 nM in the data set with G. lamblia WB (72 h) and over 1000 nM in the data set with E. histolytica HM1: IMSS (72 h).

As for `CO[C@@H]1[C@H](OC(=O)Nc2ccc(B(O)O)c(C(C)C)c2)CC[C@]2(CO2)[C@H]1[C@@]1(C)O[C@@H]1CC=C(C)C` [No 62], the IC50 was under 10 nM at Recombinant human MetAP2, 101 to 1000 nM in the data set on G. lamblia GS (72 h), over 1000 nM with G. lamblia WB (72 h) and over 1000 nM in the data set with E. histolytica HM1: IMSS (72 h).

On to `CO[C@@H]1[C@H](OC(=O)NCCB(O)O)CC[C@]2(CO2)[C@H]1[C@@]1(C)O[C@@H]1CC=C(C)C` [No 63], for which the IC50 at Recombinant human MetAP2 is under 10 nM; in the data set with G. lamblia GS (72 h), 10.1 to 100 nM; with G. lamblia WB (72 h), 101 to 1000 nM; with E. histolytica HM1: IMSS (72 h), 101 to 1000 nM.

As for `CO[C@@H]1[C@H](OC(=O)Nc2ccc(Cl)c(B(O)O)c2F)CC[C@]2(CO2)[C@H]1[C@@]1(C)O[C@@H]1CC=C(C)C` [No 64], the IC50 at Recombinant human MetAP2 was under 10 nM; with G. lamblia GS (setting [2]), 101 to 1000 nM; in the data set on G. lamblia WB (setting [2]), over 1000 nM; in the data set with E. histolytica HM1: IMSS (setting [2]), over 1000 nM.

In the case of `CO[C@@H]1[C@H](OC(=O)Nc2ccc(B(O)O)c(F)c2)CC[C@]2(CO2)[C@H]1[C@@]1(C)O[C@@H]1CC=C(C)C` [No 65], the IC50 was under 10 nM at Recombinant human MetAP2, under 10 nM with G. lamblia GS (72 h), 101 to 1000 nM in the data set on G. lamblia WB (72 h) and over 1000 nM in the data set on E. histolytica HM1: IMSS (72 h).

For the compound `CO[C@@H]1[C@H](OC(=O)N[C@@H](CC(C)C)B(O)O)CC[C@]2(CO2)[C@H]1[C@@]1(C)O[C@@H]1CC=C(C)C` [No 67], the IC50 is under 10 nM on Recombinant human MetAP2, 10.1 to 100 nM in the data set on G. lamblia GS (72 h), 101 to 1000 nM in the data set on G. lamblia WB (72 h) and 101 to 1000 nM with E. histolytica HM1: IMSS (72 h).

Take `CO[C@@H]1[C@H](OC(=O)N[C@H](CC(C)C)B(O)O)CC[C@]2(CO2)[C@H]1[C@@]1(C)O[C@@H]1CC=C(C)C` [No 68]: the half-inhibitory concentration (IC50) is under 10 nM on Recombinant human MetAP2, 101 to 1000 nM in the data set on G. lamblia GS (72 h), over 1000 nM in the data set on G. lamblia WB (72 h) and over 1000 nM in the data set with E. histolytica HM1: IMSS (72 h).

As to `CO[C@@H]1[C@H](OC(=O)N[C@@H](C)B(O)O)CC[C@]2(CO2)[C@H]1[C@@]1(C)O[C@@H]1CC=C(C)C` [No 69], the IC50 is under 10 nM at Recombinant human MetAP2, 10.1 to 100 nM with G. lamblia GS (72 h), over 1000 nM in the data set with G. lamblia WB (72 h) and over 1000 nM with E. histolytica HM1: IMSS (72 h).

With `CO[C@@H]1[C@H](OC(=O)N[C@H](C)B(O)O)CC[C@]2(CO2)[C@H]1[C@@]1(C)O[C@@H]1CC=C(C)C` [No 70], the IC50 on Recombinant human MetAP2 was under 10 nM; with G. lamblia GS (72 h) it was 10.1 to 100 nM; with G. lamblia WB (72 h), 101 to 1000 nM; in the data set on E. histolytica HM1: IMSS (72 h), over 1000 nM.
